Literature values as cited in paper PMC3368153 (Nature chemical biology, 2012).

Experiments:
[1] = tested on: γ2 F77Y GABAAR; details: versus wild type
[2] = tested on: γ2 F77I GABAAR; details: versus wild type
[3] = tested on: γ2 F77L GABAAR
[4] = tested on: α1 Y209A GABAAR; details: versus wild type
[5] = tested on: α1 H101R mutation GABAAR
[6] = tested on: α1 H101C GABAAR; details: versus wild type
[7] = tested on: α1 His101 replaced by glutamine, GABAAR; details: versus wild type

| Compound | affinity loss (factor), γ2 F77Y [1] | loss of affinity (factor), γ2 F77I [2] | tolerance of point mutation γ2 F77L (affinity) [3] | decrease in binding affinity (factor), α1 Y209A [4] | affinity in α1 H101R mutant [5] | also measured |
| --- | --- | --- | --- | --- | --- | --- |
| dichlorodiazepam | 700 |  |  |  |  |  |
| Ro15-8670 |  | 4-5 |  |  |  |  |
| CCOC(=O)c1ncn2c1CN(C)C(=O)c1cc(F)ccc1-2 [flumazenil] |  | 2,000 | tolerated well | 41 | tolerate this mutation |  |
| CN1C(=O)CN=C(c2ccccc2F)c2cc([N+](=O)[O-])ccc21 [flunitrazepam] |  |  |  |  | drastically reduced affinity | loss of affinity (factor), cysteine at α1 His101 [6]: 200; loss of affinity (factor), glutamine at α1 His101 [7]: 15 |
| CN1C(=O)CN=C(c2ccccc2)c2cc(Cl)ccc21 [diazepam] | 250 | 4-5 | tolerated well | 40 |  |  |
| monochlorodiazepam | 530 |  |  |  |  |  |
